Target: T1, Full-length, GST-tagged, human CaMKIIδ (Homo sapiens, UniProt Q13557)
T1 construct: Full-Length, Glutathione-S-Transferase(GST)-Tagged, Human CaMKIIδ was purchased from Carna Biosciences; purchased Carna Biosciences 02-111
Assay: CaMKIIδ binding assay (TR-FRET with BODIPY-labeled probe ligand)
In short: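 Compounds were tested as 4-fold, eight-point series for 1 hr at room temperature, and IC50 was obtained by logistic fitting against a 3 μM parent-compound control. Signal came from displacement of a 300 nM BODIPY ligand from 0.5 nM GST-CaMKIIδ, detected via Tb-anti-GST in calmodulin/Ca2+ (pH 7.6).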

[1] = Table 2, activity class for CaMKIIδ
[2] = CaMKIIδ binding assay, results of Table 2
[3] = CaMKIIδ binding assay, activity class per Table 2
[4] = Table 2, CaMKIIδ binding assay, activity given as class A/B/C

T1 sequence (Q13557 1-478 isoform Q13557-12): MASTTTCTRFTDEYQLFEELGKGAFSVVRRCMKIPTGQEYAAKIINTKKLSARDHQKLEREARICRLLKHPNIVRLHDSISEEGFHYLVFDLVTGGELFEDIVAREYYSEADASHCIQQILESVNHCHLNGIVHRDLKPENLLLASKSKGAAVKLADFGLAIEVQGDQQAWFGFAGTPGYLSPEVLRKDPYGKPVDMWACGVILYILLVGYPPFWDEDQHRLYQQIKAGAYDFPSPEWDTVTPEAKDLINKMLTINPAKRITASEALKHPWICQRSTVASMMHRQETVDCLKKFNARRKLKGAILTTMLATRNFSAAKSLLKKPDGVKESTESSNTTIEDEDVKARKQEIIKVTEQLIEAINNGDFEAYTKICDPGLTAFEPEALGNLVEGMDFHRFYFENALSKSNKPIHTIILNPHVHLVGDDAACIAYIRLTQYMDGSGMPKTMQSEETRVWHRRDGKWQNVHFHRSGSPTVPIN

Compound | IC50 [2] | also measured
COc1cc(N2CCNC[C@@H]2C)ccc1Nc1ncc(-c2ccc(Cl)c(O[C@@H](C)Cn3cnnn3)c2)cn1 [Example 649, 5-(3-(((S)-1-(1H-tetrazol-1-yl)propan-2-yl)oxy)-4-chlorophenyl)-N-(2-methoxy-4-((S)-2-methylpiperazin-1-yl)phenyl)pyrimidin-2-amine] |  | IC50 [1]: < 10 nM
C[C@@H](Cn1cnnn1)Oc1cc(-c2cnc(Nc3cn(C4CCN(Cc5ccncc5)CC4)nc3C(F)(F)F)nc2)ccc1Cl [Example 550, (S)-5-(3-((1-(1H-tetrazol-1-yl)propan-2-yl)oxy)-4-chlorophenyl)-N-(1-(1-(pyridin-4-ylmethyl)piperidin-4-yl)-3-(trifluoromethyl)-1H-pyrazol-4-yl)pyrimidin-2-amine] | 10 to 100 nM | 
COc1cc2c(cc1Nc1ncc(-c3ccc(Cl)c(O[C@@H](C)Cn4cnnn4)c3)cn1)CCN(CC(F)(F)F)C2 [Example 490, (S)-N-(5-(3-((1-(1H-tetrazol-1-yl)propan-2-yl)oxy)-4-chlorophenyl)pyrimidin-2-yl)-7-methoxy-2-(2,2,2-trifluoroethyl)-1,2,3,4-tetrahydroisoquinolin-6-amine] | 10 to 100 nM | 
C[C@@H](Cn1cnnn1)Oc1cc(-c2cnc(Nc3cn(C4CC5(C4)CN(C4COC4)C5)nc3OCC(F)(F)F)nc2)ccc1C(F)F [Example 950, (S)-5-(3-((1-(1H-tetrazol-1-yl)propan-2-yl)oxy)-4-(difluoromethyl)phenyl)-N-(1-(2-(oxetan-3-yl)-2-azaspiro[3.3]heptan-6-yl)-3-(2,2,2-trifluoroethoxy)-1H-pyrazol-4-yl)pyrimidin-2-amine] |  | IC50 [3]: < 10 nM
C[C@@H](Cn1cnnn1)Oc1cc(-c2cnc(Nc3cn(C4CCN(CC5COC5)CC4)nc3C(F)(F)F)nc2)ccc1Cl [Example 489, (S)-5-(3-((1-(1H-tetrazol-1-yl)propan-2-yl)oxy)-4-chlorophenyl)-N-(1-(1-(oxetan-3-ylmethyl)piperidin-4-yl)-3-(trifluoromethyl)-1H-pyrazol-4-yl)pyrimidin-2-amine] | < 10 nM | 
C[C@@H](Cn1cnnn1)Oc1cc(-c2cnc(Nc3cn(C4CCN(C5CCOCC5)CC4)nc3C3CC3)nc2)ccc1Cl [Example 545, (S)-5-(3-((1-(1H-tetrazol-1-yl)propan-2-yl)oxy)-4-chlorophenyl)-N-(3-cyclopropyl-1-(1-(tetrahydro-2H-pyran-4-yl)piperidin-4-yl)-1H-pyrazol-4-yl)pyrimidin-2-amine] | < 10 nM | 
C[C@@H](Cn1cnnn1)Oc1cc(-c2cnc(Nc3cn(C4CCN(C5CCOCC5)CC4)nc3C3CC3)nc2)ccc1C#N [Example 546, (S)-2-((1-(1H-tetrazol-1-yl)propan-2-yl)oxy)-4-(2-((3-cyclopropyl-1-(1-(tetrahydro-2H-pyran-4-yl)piperidin-4-yl)-1H-pyrazol-4-yl)amino)pyrimidin-5-yl)benzonitrile] | < 10 nM | 
CC(C)c1nn(C2CC3(C2)CN(C2CCOCC2)C3)cc1Nc1ncc(-c2ccc(Cl)c(O[C@@H](C)Cn3cnnn3)c2)cn1 [Example 936, (S)-5-(3-((1-(1H-tetrazol-1-yl)propan-2-yl)oxy)-4-chlorophenyl)-N-(3-isopropyl-1-(2-(tetrahydro-2H-pyran-4-yl)-2-azaspiro[3.3]heptan-6-yl)-1H-pyrazol-4-yl)pyrimidin-2-amine] |  | IC50 [3]: < 10 nM
C[C@@H](Cn1cccn1)Oc1cc(-c2cnc(Nc3cn(C4CCN(C5CCOCC5)CC4)nc3OCC(F)(F)F)nc2)ccc1C#N [Example 782, (S)-2-((1-(1H-pyrazol-1-yl)propan-2-yl)oxy)-4-(2-((1-(1-(tetrahydro-2H-pyran-4-yl)piperidin-4-yl)-3-(2,2,2-trifluoroethoxy)-1H-pyrazol-4-yl)amino)pyrimidin-5-yl)benzonitrile] |  | IC50 [4]: < 10 nM
C[C@@H](Cn1cccn1)Oc1cc(-c2cnc(Nc3cn([C@H]4CC[C@@H](N5CCOCC5)CC4)nc3OCC(F)(F)F)nc2)ccc1C#N [Example 797, 2-(((S)-1-(1H-pyrazol-1-yl)propan-2-yl)oxy)-4-(2-((1-(cis-4-morpholinocyclohexyl)-3-(2,2,2-trifluoroethoxy)-1H-pyrazol-4-yl)amino)pyrimidin-5-yl)benzonitrile] |  | IC50 [4]: 10 to 100 nM
C[C@@H](Cn1cnnn1)Oc1cc(-c2cnc(Nc3cn(C4CCN(CC5CC5)CC4)nc3C(F)(F)F)nc2)ccc1Cl [Example 549, (S)-5-(3-((1-(1H-tetrazol-1-yl)propan-2-yl)oxy)-4-chlorophenyl)-N-(1-(1-(cyclopropylmethyl)piperidin-4-yl)-3-(trifluoromethyl)-1H-pyrazol-4-yl)pyrimidin-2-amine] | < 10 nM | 
C[C@@H](Cn1cnnn1)Oc1cc(-c2cnc(Nc3cn(CC4(O)CCN(C)CC4)nc3OCC(F)(F)F)nc2)ccc1Cl [Example 910, (S)-4-((4-((5-(3-((1-(1H-tetrazol-1-yl)propan-2-yl)oxy)-4-chlorophenyl)pyrimidin-2-yl)amino)-3-(2,2,2-trifluoroethoxy)-1H-pyrazol-1-yl)methyl)-1-methylpiperidin-4-ol] |  | IC50 [3]: < 10 nM
COC[C@@H](C)n1cc(Nc2ncc(-c3ccc(Cl)c(O[C@@H](C)Cn4cnnn4)c3)cn2)c(OCC(F)(F)F)n1 [Example 796, 5-(3-(((S)-1-(1H-tetrazol-1-yl)propan-2-yl)oxy)-4-chlorophenyl)-N-(1-((R)-1-methoxypropan-2-yl)-3-(2,2,2-trifluoroethoxy)-1H-pyrazol-4-yl)pyrimidin-2-amine] |  | IC50 [4]: < 10 nM
COCC(=O)N1CCc2cc(OC)c(Nc3ncc(-c4ccc(Cl)c(O[C@@H](C)Cn5cnnn5)c4)cn3)cc2C1 [Example 500, (S)-1-(7-((5-(3-((1-(1H-tetrazol-1-yl)propan-2-yl)oxy)-4-chlorophenyl)pyrimidin-2-yl)amino)-6-methoxy-3,4-dihydroisoquinolin-2(1H)-yl)-2-methoxyethan-1-one] | 10 to 100 nM | 
COC1CCCCC1N1CCC(n2cc(Nc3ncc(-c4ccc(Cl)c(O[C@@H](C)Cn5cnnn5)c4)cn3)c(C(F)(F)F)n2)CC1 (stereo partly drawn) [Example 554, 5-(3-(((S)-1-(1H-tetrazol-1-yl)propan-2-yl)oxy)-4-chlorophenyl)-N-(1-(1-(2-methoxycyclohexyl)piperidin-4-yl)-3-(trifluoromethyl)-1H-pyrazol-4-yl)pyrimidin-2-amine] | < 10 nM | 
COc1cc(C)c(C(=O)N2CCOCC2)cc1Nc1ncc(-c2ccc(C#N)c(O[C@@H](C)Cn3cnnn3)c2)cn1 [Example 440, (S)-2-((1-(1H-tetrazol-1-yl)propan-2-yl)oxy)-4-(2-((2-methoxy-4-methyl-5-(morpholine-4-carbonyl)phenyl)amino)pyrimidin-5-yl)benzonitrile] | < 10 nM | 
(S)-5-(3-((1-(1H-tetrazol-1-yl)propan-2-yl)oxy)-4-chlorophenyl)-N-(5-(piperidin-4-(trifluoromethoxy)phenyl)pyrimidin-2-amine [Example 532] | < 10 nM | 
COc1cnc(N2CCC(N3CCOCC3)CC2)cc1Nc1ncc(-c2ccc(Cl)c(O[C@@H](C)Cn3cnnn3)c2)cn1 [Example 456, (S)-5-(3-((1-(1H-tetrazol-1-yl)propan-2-yl)oxy)-4-chlorophenyl)-N-(5-methoxy-2-(4-morpholinopiperidin-1-yl)pyridin-4-yl)pyrimidin-2-amine] | < 10 nM | 
C[C@@H](Cn1cnnn1)Oc1cc(-c2cnc(Nc3cn(C4CCNC4)nc3C(F)(F)F)nc2)ccc1Cl (stereo partly drawn) [Example 618, 5-(3-(((S)-1-(1H-tetrazol-1-yl)propan-2-yl)oxy)-4-chlorophenyl)-N-(1-(pyrrolidin-3-yl)-3-(trifluoromethyl)-1H-pyrazol-4-yl)pyrimidin-2-amine] |  | IC50 [1]: < 10 nM
COc1cc(N2C[C@@H]3C[C@H]2CN3)ccc1Nc1ncc(-c2ccc(Cl)c(O[C@@H](C)Cn3cnnn3)c2)cn1 [Example 634, 5-(3-(((S)-1-(1H-tetrazol-1-yl)propan-2-yl)oxy)-4-chlorophenyl)-N-(4-((1S,45)-2,5-diazabicyclo[2.2.1]heptan-2-yl)-2-methoxyphenyl)pyrimidin-2-amine] |  | IC50 [1]: 10 to 100 nM
CCOC(=O)c1nn(CC)cc1Nc1ncc(-c2ccc(Cl)c(O[C@@H](C)Cn3cnnn3)c2)cn1 [Example 873, ethyl (S)-4-((5-(3-((1-(1H-tetrazol-1-yl)propan-2-yl)oxy)-4-chlorophenyl)pyrimidin-2-yl)amino)-1-ethyl-1H-pyrazole-3-carboxylate] |  | IC50 [4]: < 10 nM
C[C@@H](Cn1cnnn1)Oc1cc(-c2cnc(Nc3cn([C@@H]4CCNC[C@H]4O)nc3C(F)(F)F)nc2)ccc1Cl (mixture of isomers) [Example 892, trans-4-(4-((5-(3-(((S)-1-(1H-tetrazol-1-yl)propan-2-yl)oxy)-4-chlorophenyl)pyrimidin-2-yl)amino)-3-(trifluoromethyl)-1H-pyrazol-1-yl)piperidin-3-ol] |  | IC50 [3]: < 10 nM
COc1nc(N2CCN(C(=O)C(F)(F)F)CC2)ccc1Nc1ncc(-c2ccc(Cl)c(O[C@@H](C)Cn3cnnn3)c2)cn1 [Example 638, (S)-1-(4-(5-((5-(3-((1-(1H-tetrazol-1-yl)propan-2-yl)oxy)-4-chlorophenyl)pyrimidin-2-yl)amino)-6-methoxypyridin-2-yl)piperazin-1-yl)-2,2,2-trifluoroethan-1-one] |  | IC50 [1]: ≥ 100 nM
COc1cc2c(cc1Nc1ncc(-c3ccc(Cl)c(O[C@@H](C)Cn4cnnn4)c3)cn1)CCN(C1COC1)C2 [Example 468, (S)-N-(5-(3-((1-(1H-tetrazol-1-yl)propan-2-yl)oxy)-4-chlorophenyl)pyrimidin-2-yl)-7-methoxy-2-(oxetan-3-yl)-1,2,3,4-tetrahydroisoquinolin-6-amine] | < 10 nM | 
COc1cc2c(cc1Nc1ncc(-c3ccc(Cl)c(O[C@@H](C)Cn4cnnn4)c3)cn1)CN(C(=O)C(C)(C)O)CC2 [Example 521, (S)-1-(7-((5-(3-((1-(1H-tetrazol-1-yl)propan-2-yl)oxy)-4-chlorophenyl)pyrimidin-2-yl)amino)-6-methoxy-3,4-dihydroisoquinolin-2(1H)-yl)-2-hydroxy-2-methylpropan-1-one] | 10 to 100 nM | 
